Source: patent US11793879B2, “Monolithic composition for dual-rate release with high drug loading” (priority 2016, dated 2023)

Conditions: for immediate release / immediate release (amount): Example 5 monolithic tablet (900 mg acetaminophen + 100 mg caffeine), after 30 minutes in SGF
Description: The dissolution kinetic assay is followed with a Distek™ apparatus according to the paddle method from USP-32, with slight modification. Indeed, the monolithic tablets are placed in 750 mL of simulated gastric fluid (SGF, pH 1.5) during 30 minutes, at 37° C. Thereafter, a volume of 250 mL of sodium tripolyphosphate 0.20 M is added directly in SGF to neutralize the gastric acidity for pH values of about 6.8-7.0 which constituted the pH of simulated intestinal fluid (SIF).
At different intervals of 30 minutes, an aliquot of 1 mL of dissolution fluid is withdrawn from dissolution media, filtered and properly diluted (approximately 1/50). The absorbency is measured with an UV spectrometer (Lambda-40 Spectrometer, Perkin Elmer) at 247 nm.
The Carboxymethyl starch is prepared according to the process of the present invention. […] For acetaminophen, the absorbency of samples is measured with an UV spectrometer at 247 nm. For caffeine, the dosage is carried out by HPLC according to method described by Hassouna et al. (Hassouna, M. E. M, Issa, Y. M. and Zayed, A. G. 2012. J. Appl. Pharm. Sci., 02, 52-59)

Compound	immediate release of Acetaminophen (amount) (Example 4 monolithic tablet (1000 mg acetaminophen), after 45 minutes (30 minutes in SGF and 15 minutes in SIF))	immediate release of Acetaminophen (Example 4 monolithic tablet (1000 mg acetaminophen, carboxymethyl starch excipient), after 45 minutes (30 minutes in SGF pH 1.5 and 15 minutes in SIF), 37° C., FIG. 2)	immediate release	immediate release (amount)
CC(=O)Nc1ccc(O)cc1 [Acetaminophen]	~600 mg	~60%	~35%	~350 mg
Cn1c(=O)c2c(ncn2C)n(C)c1=O [caffeine, Caffeine]			~25%	~25 mg
